From US4945098A, “Novel propane-1,3-diol derivatives and use” (Leo Pharmaceutical Products Ltd. A/S (Lovens Kemiske Fabrik, priority 1985, dated 1990)

Experiment: hygroscopicity
Assay type: physicochemical
Details: crystals from acetone/ether, monohydrate

- hygroscopicity: Hygroscopic
Compound: C=C(COC(=O)CCCCCC[n+]1ccsc1)COC(=O)NCCCCCCCCCCCCCCCCCC [Example 46, 1-Octadecylaminocarbonyloxy-3-[7-(3-thiazolio)heptanoyloxy]-2-methylenepropane bromide]
